{"source": "patent US20130041036A1", "about": "“FERULIC ACID AS FEED SUPPLEMENT IN BEEF CATTLE TO PROMOTE ANIMAL GROWTH AND IMPROVE THE MEAT QUALITY OF THE CARCASS AND THE MEAT” (BIOKAB, S.A. DE C.V., priority 2011, published 2013)", "format_in_all_cases": "in vivo, beef cattle of commercial breeds", "key": {"[1]": {"tested_on": "Longissimus dorsi muscle", "assay": "Shelf life study of refrigerated meat (colour, TBARS)", "conditions": "for TBA values (lipid oxidation) during shelf life: FIG. 2", "procedure": "In order to estimate the antioxidant effect of ferulic acid, 5 chops of the meat samples were taken (5 experimental units) of the respective treatments, which were packed with traditional packaging (film wrapped) and subjected to a refrigeration process from 4 and 5° C. for 10 days in a room equipped for this purpose. During the shelf life (Day 1, 3, 5, 7 and 9 of storage) the objective color parameters mentioned above, as well as determination of substances reactive to thiobarbituric acid (TBARS) were evaluated according to the methodology described by Pfalzgraf et al. (1995). TBA values were expressed as substances reactive to 2-thiobarbituric acid (TBARS) in mg malonaldehyde/kg sample.\n(§1) All data for response variables of the quality of carcass and meat were analyzed under a completely randomized design, with a one-way ANOVA, taking the experimental treatments as a fixed effect. For carcass BFT and REA characteristics the hot carcass weight was used as a covariable. Regarding the sensory attributes, the model also included the effect of panelist as the repeated measure. The variables of the shelf life study were analyzed as a completely randomized design with factorial arrangement, factor A being the treatment with 4 levels, and factor B, the storage time with 5 levels. When there were statistical differences (P<0.05) between treatments, average comparisons were performed by the multiple range test of Tukey. All data was processed in the NCSS statistical package (NCSS, 2001)."}, "[2]": {"tested_on": "Longissimus dorsi muscle", "assay": "Chemical and physicochemical quality of Longissimus dorsi muscle from supplemented cattle", "conditions": "for SF: shear force: Warner-Bratzler; for L* value: fresh meat brightness; for a* value: fresh meat redness; for b* value: fresh meat yellowness; for pH: meat", "procedure": "Subsequent to the carcass classification the rib eye cut (LD muscle) was obtained of the left side of each selected carcass. Meat samples were identified, vacuum packed, frozen at -18° C., and then shipped under refrigeration by air courier to the Centro de Investigación en Alimentacion y Desarrollo A.C. (CIAD) facilities at Hermosillo, Sonora, to perform quality analysis of the meat: Chemical analysis (moisture and fat content), physicochemical (objective color parameters L*, which measures the brightness of the meat, a* value, which measures the redness, and b* value which measures the tendency towards yellowness, and hue-angle, Warner-Bratzler shear force, water retention capacity and pH). A sensory test was done by a trained panel consisting of 10 members using a descriptive test with a semi-structured 10 cm scale, where zero indicates a […] of the attribute and a 10 indicates a favorable rating (e.g. tenderness, zero indicates extremely hard and 10 extremely tender). The sensory attributes that were measured: total color and overall appearance of raw meat, flavor, odor, color, tenderness, fat perception, juiciness, and perception of connective tissue in cooked meat. […] To measure cooking loss, the meat sample was weighed before and immediately after reaching the final cooking temperature, which was expressed in percentage. All data for response variables of the quality of carcass and meat were analyzed under a completely randomized design, with a one-way ANOVA, taking the experimental treatments as a fixed effect. For carcass BFT and REA characteristics the hot carcass weight was used as a covariable. Regarding the sensory attributes, the model also included the effect of panelist as the repeated measure. The variables of the shelf life study were analyzed as a completely randomized design with factorial arrangement, factor A being the treatment with 4 levels, and factor B, the storage time with 5 levels. When there were statistical differences (P<0.05) between treatments, average comparisons were performed by the multiple range test of Tukey."}, "[3]": {"tested_on": "beef cattle", "assay": "Feedlot performance and carcass quality of beef cattle", "conditions": "for CCW: cold carcass weight: carcass 24 hr at 0° C.; for PH45: pH at 45 min postmortem: Longissimus dorsi", "from_the_text": "In this study, all animals received the same prophylactic management, and all were subsequently assigned randomly to one of the following four treatments (25 animals per treatment, divided into pens of 5 experimental units per pen):\nDefinition of the 4 Treatments\nTreatment 1 (Control): control animals (receiving only the basal diet without supplementation of the additive).\nTreatment 2 (Ferulic Acid for 30 days=FA30): Animals receiving the basal diet supplemented with 240 ppm of ferulic acid during the last 30 days of the fattening period.\nTreatment 3 (Ferulic Acid for 60 days=FA60): Animals receiving the basal diet supplemented with 240 ppm of ferulic acid during the last 60 days of the fattening period.\nTreatment 4 (Zilmax commercial Zilpaterp; =ZX): Animals receiving the basal diet and supplemented with 6 ppm hydrochloride zilpaterol during the last 30 days of the fattening period.\nDuring the experimental phase, all animals received a feeding ration consisting of 20% fodder and 80% concentrate. The crop was corn stover, while the concentrate consisted of different proportions of rolled corn grain, soybean meal, canola meal, distillery grains, and molasses. The ration was provided twice a day, and there was free access to the food and drinking water.\nInitial and final live weight was recorded in the productive performance trial. The performance test lasted 60 days. Daily feed intake was evaluated, weight was recorded at the beginning and end of experimental period, in order to estimate the average daily gain and feed conversion.\nBefore concluding the performance test, 2 animals were randomly selected per pen (10 per treatment) for humanitarian slaughter. The animals were sacrificed following the standard procedures of the official Mexican standards in the municipal slaughterhouse of Guadalajara, Jalisco. Animal live weight was recorded before slaughter.\nDuring the slaughter process, the pH of the carcass at 45 min postmortem in the Longissimus dorsi muscle (LD) was measured and the weight of the hot carcass was recorded. The carcasses were refrigerated at 0° C. for 24 hr. After this, the final pH was measured and cold carcass weight recorded, and the classification of carcasses was carried out, recording the Rib eye area (REA) in square inches, back fat thickness (BFT) in mm, and the marbling in the 12th intercostal space of the LD; the skeletal maturity and conformation of the carcass was also evaluated (10 carcasses per treatment). The assessment of quality of the carcass was made following the procedures described by the US Department of Agriculture (USDA, 2000).\nas §1"}, "[4]": {"conditions": "240 ppm ferulic acid (FA30) or 6 ppm zilpaterol hydrochloride (ZX), last 30 days of fattening"}, "[5]": {"conditions": "240 ppm ferulic acid, last 60 days of fattening (FA60)"}, "[6]": {"conditions": "240 ppm ferulic acid (FA30) or 6 ppm zilpaterol hydrochloride (ZX) in diet, last 30 days of fattening"}, "[7]": {"conditions": "240 ppm ferulic acid in diet, last 60 days of fattening (FA60)"}}, "note": "Entries after “also recorded” stand apart in the source; their conditions may differ. Marks after values point to notes of the source that are not given here."}
{"smiles": "COc1cc(/C=C/C(=O)O)ccc1O", "note": "[ferulic acid, trans-4-hydroxy-3-methoxy cinnamic acid]", "values": [{"measurement": "color parameter a* (redness) during shelf life", "setting": "[1]; film wrapped meat at 4 and 5° C., days 1-9, 240 ppm ferulic acid last 30 days of fattening, FIG. 1, listed as FA30", "result": "delayed effect of the deterioration of the red color of the meat; also recorded: maintained the highest values of a* until day 7 of storage"}, {"measurement": "TBA values (lipid oxidation) during shelf life", "setting": "[1]; film wrapped meat at 4 and 5° C., days 1-9, 240 ppm ferulic acid last 30 days of fattening", "result": "lower; also recorded: smaller increases in TBA values"}, {"measurement": "TBA values (lipid oxidation) during shelf life", "setting": "[1]; film wrapped meat at 4 and 5° C., days 1-9, 240 ppm ferulic acid last 60 days of fattening", "result": "faster oxidation"}, {"measurement": "photographic pattern of changes of meat color during shelf life", "setting": "[1]; refrigerated storage, 240 ppm ferulic acid last 30 days of fattening, FIG. 3", "result": "maintain the red meat color with less changes until day 7 of storage"}, {"measurement": "Cooking loss", "setting": "[2]; [4]", "result": "17.65^ab %"}, {"measurement": "Fat content", "setting": "[2]; [4]", "result": 2.13, "unit": "%"}, {"measurement": "Hue angle", "setting": "[2]; [4]", "result": 36.79}, {"measurement": "Moisture", "setting": "[2]; [4]", "result": 73.10, "unit": "%"}, {"measurement": "WHC: water holding capacity", "setting": "[2]; [4]", "result": 25.73, "unit": "%"}, {"measurement": "Cooking loss", "setting": "[2]; [5]", "result": "19.65^b %"}, {"measurement": "Fat content", "setting": "[2]; [5]", "result": 2.52, "unit": "%"}, {"measurement": "Hue angle", "setting": "[2]; [5]", "result": 37.13}, {"measurement": "Moisture", "setting": "[2]; [5]", "result": 73.41, "unit": "%"}, {"measurement": "WHC: water holding capacity", "setting": "[2]; [5]", "result": 25.44, "unit": "%"}, {"measurement": "SF: shear force", "setting": "[2]; [4]", "result": "values significantly lower"}, {"measurement": "SF: shear force", "setting": "[2]; 240 ppm ferulic acid (FA30) or 6 ppm zilpaterol hydrochloride (ZX), last 30 days of fattening, listed as FA30", "result": "7.94^a kg F"}, {"measurement": "SF: shear force", "setting": "[2]; [5]", "result": "8.32^ab kg F"}, {"measurement": "L* value", "setting": "[2]; [4]", "result": 36.66}, {"measurement": "L* value", "setting": "[2]; [5]", "result": 35.74}, {"measurement": "a* value", "setting": "[2]; [4]", "result": 16.86}, {"measurement": "a* value", "setting": "[2]; [5]", "result": 17.55}, {"measurement": "b* value", "setting": "[2]; [4]", "result": 12.53}, {"measurement": "b* value", "setting": "[2]; [5]", "result": 13.22}, {"measurement": "pH", "setting": "[2]; [4]", "result": 5.54}, {"measurement": "pH", "setting": "[2]; [5]", "result": 5.57}, {"measurement": "FW: final weight", "setting": "[3]; [6]", "result": 553.5, "unit": "kg"}, {"measurement": "HCW: hot carcass weight", "setting": "[3]; [6]", "result": 336.42, "unit": "kg"}, {"measurement": "CCW: cold carcass weight", "setting": "[3]; [6]", "result": 331.13, "unit": "kg"}, {"measurement": "BFT: back fat thickness", "setting": "[3]; [4]", "result": 4.29, "unit": "mm"}, {"measurement": "PH24: pH at 24 h postmortem", "setting": "[3]; [4]", "result": 5.63}, {"measurement": "REA: rib eye area", "setting": "[3]; [4]", "result": 14.54, "unit": "Inch^2"}, {"measurement": "CY: carcass yield", "setting": "[3]; [7]", "result": "59.85^ab %"}, {"measurement": "FW: final weight", "setting": "[3]; [7]", "result": 551.9, "unit": "kg"}, {"measurement": "HCW: hot carcass weight", "setting": "[3]; [7]", "result": 330.42, "unit": "kg"}, {"measurement": "CCW: cold carcass weight", "setting": "[3]; [7]", "result": 325.42, "unit": "kg"}, {"measurement": "BFT: back fat thickness", "setting": "[3]; [5]", "result": 4.38, "unit": "mm"}, {"measurement": "PH24: pH at 24 h postmortem", "setting": "[3]; [5]", "result": 5.61}, {"measurement": "REA: rib eye area", "setting": "[3]; [5]", "result": 14.21, "unit": "Inch^2"}, {"measurement": "PH45: pH at 45 min postmortem", "setting": "[3]; [4]", "result": "6.54^b"}, {"measurement": "PH45: pH at 45 min postmortem", "setting": "[3]; [5]", "result": "6.33^ab"}]}
